{"source": "patent US20210177879A1", "about": "“VITAMIN D RECEPTOR AGONIST” (Guanghzou University of Chinese Medicine, priority 2018, published 2021)", "format_in_all_cases": "in vivo, Balb/c mice", "key": {"intestinal permeability": {"test_system": "intestinal permeability", "experiment": "Determination of intestinal permeability in serum with FITC-dextran", "conditions": "after third stage of modeling; monotropein high and low doses, 5-ASA 100 mg/kg", "experimental": "Experimental method: 90 Balb/c mice of 6-8 weeks were purchased from the Experimental Animal Center in Guangzhou University of Chinese Medicine, weighed about 18-22 g, and subjected to adaptive feeding for 10 days. Modeling was divided into three stages. In the first stage, except for the normal group of animals being given saline injection, each of the other animals were intraperitoneally injected with a carcinogen AOM (10 mg/kg), and given free access to 2% DSS water from the next day for 7 days, and then given access to replaced regular drinking water for 14 days. In the second stage, the animals were given free access to 2% DSS water for 10 days, and then given access to replaced regular drinking water for 14 days. In the third stage, the animals were given free access to 2% DSS water for 10 days, and then given access to replaced regular drinking water for 11 days. […] The diet, water drinking and body weights of the animals were recorded daily and DAI scores were made, and the animals were killed and harvested at the 10th week. […] 25 μl of serum was taken and added with 100 μl PBS, and determined on a microplate reader for its fluorescence intensity, where the wavelength of the exciting light was 480 nm, and the wavelength of the emitting light was 520 nm. A standard curve was made and the sample concentration was calculated."}, "IL-6, IL-10, IL-1β": {"test_system": "IL-6, IL-10, IL-1β", "experiment": "Determination of cytokines in intestinal tumor tissues by Elisa", "conditions": "vs model group; high-dose monotropein (8 mg/kg) and positive drug 5-ASA (100 mg/kg)", "experimental": "Experimental method: 90 Balb/c mice of 6-8 weeks were purchased from the Experimental Animal Center in Guangzhou University of Chinese Medicine, weighed about 18-22 g, and subjected to adaptive feeding for 10 days. Modeling was divided into three stages. In the first stage, except for the normal group of animals being given saline injection, each of the other animals were intraperitoneally injected with a carcinogen AOM (10 mg/kg), and given free access to 2% DSS water from the next day for 7 days, and then given access to replaced regular drinking water for 14 days. In the second stage, the animals were given free access to 2% DSS water for 10 days, and then given access to replaced regular drinking water for 14 days. In the third stage, the animals were given free access to 2% DSS water for 10 days, and then given access to replaced regular drinking water for 11 days. The normal group was given access to regular drinking water throughout the experiment. The diet, water drinking and body weights of the animals were recorded daily and DAI scores were made, and the animals were killed and harvested at the 10th week. In this experiment, the animals were divided into groups and administrated on the first day of a modeling period of the second stage, and the total number of groups was set to 5 groups. […]\nThe intestinal tumor tissues frozen and stored at −80° C. were taken and homogenized, and the homogenate was determined with a BCA kit for the total protein concentration thereof. The homogenate was diluted by 20 times and then determined by Elisa method for cytokines: IL-6, IL-10, and IL-1β. […]"}, "[1]": {"test_system": "peripheral blood macrophages", "experiment": "Typing of peripheral blood macrophages by flow cytometry", "conditions": "compared with normal group", "experimental": "Experimental method: 90 Balb/c mice of 6-8 weeks were purchased from the Experimental Animal Center in Guangzhou University of Chinese Medicine, weighed about 18-22 g, and subjected to adaptive feeding for 10 days. Modeling was divided into three stages. In the first stage, except for the normal group of animals being given saline injection, each of the other animals were intraperitoneally injected with a carcinogen AOM (10 mg/kg), and given free access to 2% DSS water from the next day for 7 days, and then given access to replaced regular drinking water for 14 days. In the second stage, the animals were given free access to 2% DSS water for 10 days, and then given access to replaced regular drinking water for 14 days. In the third stage, the animals were given free access to 2% DSS water for 10 days, and then given access to replaced regular drinking water for 11 days. The normal group was given access to regular drinking water throughout the experiment. The diet, water drinking and body weights of the animals were recorded daily and DAI scores were made, and the animals were killed and harvested at the 10th week. In this experiment, the animals were divided into groups and administrated on the first day of a modeling period of the second stage, and the total number of groups was set to 5 groups. […] Dosing was conducted daily until dissection. […]"}, "[2]": {"test_system": "AOM/DSS colon cancer model", "experiment": "AOM/DSS colon cancer model, Experiment 1 (body weight, anal prolapse, organ coefficient, colon and tumor indexes)", "experimental": "Experimental method: 90 Balb/c mice of 6-8 weeks were purchased from the Experimental Animal Center in Guangzhou University of Chinese Medicine, weighed about 18-22 g, and subjected to adaptive feeding for 10 days. Modeling was divided into three stages. In the first stage, except for the normal group of animals being given saline injection, each of the other animals were intraperitoneally injected with a carcinogen AOM (10 mg/kg), and given free access to 2% DSS water from the next day for 7 days, and then given access to replaced regular drinking water for 14 days. In the second stage, the animals were given free access to 2% DSS water for 10 days, and then given access to replaced regular drinking water for 14 days. In the third stage, the animals were given free access to 2% DSS water for 10 days, and then given access to replaced regular drinking water for 11 days. The normal group was given access to regular drinking water throughout the experiment. The diet, water drinking and body weights of the animals were recorded daily and DAI scores were made, and the animals were killed and harvested at the 10th week. In this experiment, the animals were divided into groups and administrated on the first day of a modeling period of the second stage, and the total number of groups was set to 5 groups. The first group was a blank control group (Normal), in which a total of 12 animals were given access to drinking water by gavage; the second group was a model group (AOM/DSS), in which a total of 22 animals were given access to drinking water by gavage; the third group was a positive drug control group (5-ASA+AOM/DSS), in which a total of 22 animals were given access to 100 mg/kg of mesalazine (5-ASA) by gavage; and the fourth and fifth groups were monotropein-intervening groups (Mo+AOM/DSS), which were a high dose of 8 mg/kg and a low dose of 2 mg/kg, respectively, with 17 animals in each group. Dosing was conducted daily until dissection.\n(1) The calculation formula of a DAI score: DAI value=(score of weight loss+score of stool trait+score of blood in stool)/3.\nThe animals were anesthetized and harvested, and the liver, spleen, thymus and testis were weighed to calculate the organ coefficient; the colon tissue was taken, measured with a ruler for the length, and measured with a vernier caliper for the thickness, and the number and size of tumors and degree of colonic ulceration and adhesion were recorded; respective tissues were cut into small pieces and fixed, and the remaining tissues were frozen and stored; and the fixed tissues were used for HE staining and immunohistochemistry."}}}
{"smiles": "Nc1ccc(O)c(C(=O)O)c1", "note": "[5-ASA, mesalazine, reference compound]", "values": [{"measurement": "intestinal permeability (FITC-dextran in serum) vs model group", "setting": "intestinal permeability", "result": "not statistically significant"}, {"measurement": "level of IL-10 in tumor tissues", "setting": "IL-6, IL-10, IL-1β", "result": "no significant differences"}, {"measurement": "M1/M2 ratio of peripheral blood macrophages", "setting": "[1]", "result": "significantly reduced"}, {"measurement": "spleen enlargement caused by AOM/DSS modeling (organ coefficient)", "setting": "[2]; monotropein high (8 mg/kg) and low (2 mg/kg) doses, 5-ASA 100 mg/kg", "result": "has no such effect"}, {"measurement": "anal prolapse occurrence at the third stage of modeling", "setting": "[2]; per group, monotropein 8 mg/kg and 2 mg/kg groups (17 animals each), 5-ASA 100 mg/kg (22 animals), gavage daily, model group 8-12", "result": "8-12 animals"}]}
